From ChEMBL document CHEMBL2074280, “Acceleration of MRP-associated efflux of rhodamine 123 by genistein and related compounds” (Br J Cancer, 1996)

Key:
Format in all cases: functional, cell-based
[1] = molecular target: T1, Multidrug resistance-associated protein 1 (Homo sapiens, UniProt P33527); test: TP_TRANSPORTER: increase in DNR intracellular accumulation (DNR: 0.5 uM, Genistein: 200 uM) in MOR-R cells
[2] = molecular target: T1, Multidrug resistance-associated protein 1; test: TP_TRANSPORTER: increase in DNR intracellular accumulation (DNR: 0.5 uM, Genistein: 200 uM) in COR-L23/R cells
[3] = molecular target: ATP-dependent translocase ABCB1 (Homo sapiens, UniProt P08183); test: TP_TRANSPORTER: increase in DNR intracellular accumulation (DNR: 0.5 uM, Genistein: 200 uM) in H69/LX4 cells; conditions: h69/lx4, 200 µM
Sequence of ATP-dependent translocase ABCB1 (P08183 whole entry): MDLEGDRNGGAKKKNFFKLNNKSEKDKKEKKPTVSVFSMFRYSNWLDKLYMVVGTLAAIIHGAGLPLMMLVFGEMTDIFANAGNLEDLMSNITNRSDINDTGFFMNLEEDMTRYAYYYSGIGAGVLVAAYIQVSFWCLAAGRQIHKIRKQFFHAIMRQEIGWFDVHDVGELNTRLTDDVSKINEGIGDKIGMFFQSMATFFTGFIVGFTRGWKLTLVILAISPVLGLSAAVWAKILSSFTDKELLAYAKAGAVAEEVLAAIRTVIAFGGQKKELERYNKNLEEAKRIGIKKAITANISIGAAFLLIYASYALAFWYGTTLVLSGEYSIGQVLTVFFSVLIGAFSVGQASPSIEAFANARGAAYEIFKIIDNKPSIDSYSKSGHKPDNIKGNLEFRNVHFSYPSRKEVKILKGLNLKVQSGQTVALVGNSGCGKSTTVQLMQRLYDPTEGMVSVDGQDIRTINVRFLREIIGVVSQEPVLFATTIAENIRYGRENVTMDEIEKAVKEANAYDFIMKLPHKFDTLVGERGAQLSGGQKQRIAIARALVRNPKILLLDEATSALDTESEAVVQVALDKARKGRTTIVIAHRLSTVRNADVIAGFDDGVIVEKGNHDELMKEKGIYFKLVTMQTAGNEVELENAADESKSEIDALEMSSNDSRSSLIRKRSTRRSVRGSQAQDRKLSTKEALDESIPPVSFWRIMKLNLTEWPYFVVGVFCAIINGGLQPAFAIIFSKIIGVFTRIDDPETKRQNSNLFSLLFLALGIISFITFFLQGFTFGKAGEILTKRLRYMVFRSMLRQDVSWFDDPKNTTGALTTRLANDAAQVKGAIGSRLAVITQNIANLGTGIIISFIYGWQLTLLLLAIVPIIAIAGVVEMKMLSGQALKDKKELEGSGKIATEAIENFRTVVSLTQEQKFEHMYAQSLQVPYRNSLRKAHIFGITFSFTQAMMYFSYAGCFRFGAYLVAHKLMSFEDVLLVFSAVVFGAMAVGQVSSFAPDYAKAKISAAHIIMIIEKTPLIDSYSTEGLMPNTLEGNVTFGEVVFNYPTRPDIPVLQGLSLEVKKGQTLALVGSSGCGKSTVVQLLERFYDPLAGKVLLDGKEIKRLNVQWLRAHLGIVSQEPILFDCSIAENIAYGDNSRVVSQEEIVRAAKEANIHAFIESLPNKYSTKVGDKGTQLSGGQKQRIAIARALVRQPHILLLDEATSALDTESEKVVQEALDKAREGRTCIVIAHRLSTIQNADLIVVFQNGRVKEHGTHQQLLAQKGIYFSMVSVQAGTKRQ

T1 sequence (P33527 whole entry): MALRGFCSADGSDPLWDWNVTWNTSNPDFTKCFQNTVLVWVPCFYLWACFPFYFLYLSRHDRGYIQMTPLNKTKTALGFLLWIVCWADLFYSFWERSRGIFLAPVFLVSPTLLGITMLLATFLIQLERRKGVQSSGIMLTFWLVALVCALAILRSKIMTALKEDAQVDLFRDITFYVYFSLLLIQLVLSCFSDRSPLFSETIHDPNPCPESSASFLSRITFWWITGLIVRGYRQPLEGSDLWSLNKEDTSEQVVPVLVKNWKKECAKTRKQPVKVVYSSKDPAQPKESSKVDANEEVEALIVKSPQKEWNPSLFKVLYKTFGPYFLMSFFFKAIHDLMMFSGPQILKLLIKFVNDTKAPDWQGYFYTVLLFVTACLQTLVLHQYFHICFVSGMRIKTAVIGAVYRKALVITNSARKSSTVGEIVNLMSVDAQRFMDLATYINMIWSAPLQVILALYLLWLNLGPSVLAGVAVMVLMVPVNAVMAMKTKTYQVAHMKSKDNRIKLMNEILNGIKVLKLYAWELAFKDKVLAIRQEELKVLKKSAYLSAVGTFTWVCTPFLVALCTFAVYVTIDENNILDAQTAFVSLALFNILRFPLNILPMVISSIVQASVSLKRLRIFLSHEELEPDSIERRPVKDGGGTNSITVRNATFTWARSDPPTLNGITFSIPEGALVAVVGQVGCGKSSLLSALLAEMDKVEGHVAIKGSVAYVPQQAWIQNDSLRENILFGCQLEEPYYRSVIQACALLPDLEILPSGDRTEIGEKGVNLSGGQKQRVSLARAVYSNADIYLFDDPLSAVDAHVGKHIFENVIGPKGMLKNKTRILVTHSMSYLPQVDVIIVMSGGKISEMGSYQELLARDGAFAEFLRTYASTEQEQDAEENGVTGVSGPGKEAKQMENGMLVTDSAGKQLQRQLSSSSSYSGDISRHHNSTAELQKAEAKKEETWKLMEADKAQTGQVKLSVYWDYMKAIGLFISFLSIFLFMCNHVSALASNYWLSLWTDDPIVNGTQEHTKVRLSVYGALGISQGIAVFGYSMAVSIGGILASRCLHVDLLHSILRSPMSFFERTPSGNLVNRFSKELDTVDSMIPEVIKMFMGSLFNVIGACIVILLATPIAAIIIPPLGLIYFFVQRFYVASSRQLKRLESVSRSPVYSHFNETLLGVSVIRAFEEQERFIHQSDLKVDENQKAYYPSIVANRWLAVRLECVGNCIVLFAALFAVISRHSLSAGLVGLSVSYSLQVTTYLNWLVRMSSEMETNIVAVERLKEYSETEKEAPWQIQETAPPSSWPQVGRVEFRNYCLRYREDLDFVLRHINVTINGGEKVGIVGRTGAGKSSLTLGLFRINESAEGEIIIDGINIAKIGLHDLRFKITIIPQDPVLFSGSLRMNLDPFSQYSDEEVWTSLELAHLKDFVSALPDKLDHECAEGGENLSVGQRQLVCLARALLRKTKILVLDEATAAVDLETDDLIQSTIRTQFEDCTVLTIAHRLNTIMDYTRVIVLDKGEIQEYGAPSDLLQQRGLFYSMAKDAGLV

- Activity [1]: inhibitor [+]
- Activity [2]: inhibitor [+]
- Activity [3]: inhibitor [+]
SMILES: O=c1c(-c2ccc(O)cc2)coc2cc(O)cc(O)c12 [GENISTEIN]
